Source: paper doi:10.1101/2023.11.15.567208 (bioRxiv, 2024)

Experiments:
[1] = target: T1, CGRP receptor (Calcrl and Ramp1) (Mus musculus, UniProt Q9R1W5+Q9WTJ5); assay: CGRP-sniffer HEK293 cells, calcium (GCaMP6s) dose-response; assay type: cell-based; conditions: selectivity control; HEK293 expressing Calcrl, Ramp1, GCaMP6s and Gα15
T1 construct: expressed in transfected cells; host or cells: HEK293; Calcrl/Gα15/GCaMP6s by PiggyBac transposase (puromycin), Ramp1 by pSBbi-Neo-cmv-TETo2-RAMP1 IRES-mTagBFP2-NLS (geneticin); doxycycline-induced
Description: The copyright holder for this preprint
(1 picture or pasted object on this page, not shown here)

[2] = ref Hylden and Wilcox, 1981, Malick and Goldstein, 1978, cited from earlier work
Description: Alternatively, neuropeptides may have opposing effects in different parts of the circuitry meaning global loss of the gene may produce a net effect of no change in a particular behavior.

[3] = ref von Euler and Gaddum, 1931 (Substance P); Amara et al., 1982 (CGRPα); cited from earlier work
Description: Among the most challenging diseases to treat is chronic pain. With over 20% of the population suffering from chronic pain, we urgently need to find new analgesic targets ([Nahin et al., 2023]).

[4] = target: T2, Substance P receptor (NKR1) (Mus musculus, UniProt P30548); assay: Co-culture of DRG neurons with Substance P-sniffer cells, capsaicin-evoked Substance P release; assay type: cell-based; conditions: exogenous Substance P (10 nM); co-culture with WT or DKO DRG
T2 construct: T2A self-cleaving peptide remnant (from the polycistronic P2A-TACR1-T2A cassette) (C); expressed in transfected cells; host or cells: Flp-In T-REx HEK293 (Thermo Fisher Scientific, R78007), lentiviral transduction, hygromycin selection
T2 sequence (P30548 whole entry): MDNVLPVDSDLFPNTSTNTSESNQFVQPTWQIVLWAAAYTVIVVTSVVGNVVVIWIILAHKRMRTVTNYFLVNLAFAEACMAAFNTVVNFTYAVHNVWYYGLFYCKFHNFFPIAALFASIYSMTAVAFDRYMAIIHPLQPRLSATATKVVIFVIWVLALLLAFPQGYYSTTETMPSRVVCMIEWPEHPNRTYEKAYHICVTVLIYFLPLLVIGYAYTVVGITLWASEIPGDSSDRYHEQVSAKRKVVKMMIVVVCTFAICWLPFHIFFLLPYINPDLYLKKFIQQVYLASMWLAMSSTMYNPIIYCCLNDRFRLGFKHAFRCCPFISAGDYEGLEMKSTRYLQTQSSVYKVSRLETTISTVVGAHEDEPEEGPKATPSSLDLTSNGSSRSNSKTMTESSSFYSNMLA

T1 sequence (Q9R1W5 23-463): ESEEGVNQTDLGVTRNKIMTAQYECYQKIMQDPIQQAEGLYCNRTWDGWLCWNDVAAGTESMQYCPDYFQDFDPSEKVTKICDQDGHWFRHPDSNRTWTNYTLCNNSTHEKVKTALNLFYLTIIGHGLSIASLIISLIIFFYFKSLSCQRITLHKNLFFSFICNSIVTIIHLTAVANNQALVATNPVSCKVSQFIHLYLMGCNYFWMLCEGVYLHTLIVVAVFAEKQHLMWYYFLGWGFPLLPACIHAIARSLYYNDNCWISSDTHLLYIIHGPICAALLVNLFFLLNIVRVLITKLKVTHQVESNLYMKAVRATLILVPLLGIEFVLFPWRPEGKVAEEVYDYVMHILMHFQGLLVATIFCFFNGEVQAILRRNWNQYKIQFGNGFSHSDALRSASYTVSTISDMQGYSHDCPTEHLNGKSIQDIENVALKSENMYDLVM
T1 sequence (Q9WTJ5 27-148): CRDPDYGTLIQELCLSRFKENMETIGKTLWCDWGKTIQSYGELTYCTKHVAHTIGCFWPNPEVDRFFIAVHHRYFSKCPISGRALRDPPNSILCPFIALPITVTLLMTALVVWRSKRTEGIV

## Substance P: 11-amino acid peptide first discovered as a tissue extract with contractile activity
[1]
  Sensitivity of CGRP-sniffer cells: insensitive
[2]; in the brain
  Effect in the brain: analgesic
[2]; infusion into the spinal cord
  Effect of infusion into the spinal cord: elicits pain
[3]
  Contractile or vasodilator activity: contractile activity
[4]
  Substance P-sniffer activation by exogenous peptide: activates Substance P-sniffers in both conditions
